Tests used:
Test in all cases: biochemical
5HT2A = 5HT2A (Homo sapiens, UniProt P28223)
SERT = SERT (Homo sapiens, UniProt P31645)
D2 = D2 (Homo sapiens, UniProt P14416)
D1 = D1 (Homo sapiens, UniProt P21728)
5HT3 = target: T1, 5HT3 (Homo sapiens, UniProt P46098)
T1 sequence (P46098 1-478): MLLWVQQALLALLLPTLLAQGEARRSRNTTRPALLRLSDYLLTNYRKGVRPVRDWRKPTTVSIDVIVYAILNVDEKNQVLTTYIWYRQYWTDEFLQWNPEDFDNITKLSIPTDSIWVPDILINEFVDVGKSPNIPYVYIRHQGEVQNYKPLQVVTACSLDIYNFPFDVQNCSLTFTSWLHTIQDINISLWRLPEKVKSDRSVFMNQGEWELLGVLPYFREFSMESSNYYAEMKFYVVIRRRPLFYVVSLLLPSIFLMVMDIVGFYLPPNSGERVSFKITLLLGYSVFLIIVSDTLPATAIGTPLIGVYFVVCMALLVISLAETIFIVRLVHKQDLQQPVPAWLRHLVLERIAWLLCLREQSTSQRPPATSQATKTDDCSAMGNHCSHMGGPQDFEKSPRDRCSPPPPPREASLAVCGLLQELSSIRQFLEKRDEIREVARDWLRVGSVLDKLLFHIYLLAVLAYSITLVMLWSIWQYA

H1 = H1 (Homo sapiens, UniProt P35367)
5HT6 = 5HT6 (Homo sapiens, UniProt P50406)
5HT6, sequence (P50406 whole entry): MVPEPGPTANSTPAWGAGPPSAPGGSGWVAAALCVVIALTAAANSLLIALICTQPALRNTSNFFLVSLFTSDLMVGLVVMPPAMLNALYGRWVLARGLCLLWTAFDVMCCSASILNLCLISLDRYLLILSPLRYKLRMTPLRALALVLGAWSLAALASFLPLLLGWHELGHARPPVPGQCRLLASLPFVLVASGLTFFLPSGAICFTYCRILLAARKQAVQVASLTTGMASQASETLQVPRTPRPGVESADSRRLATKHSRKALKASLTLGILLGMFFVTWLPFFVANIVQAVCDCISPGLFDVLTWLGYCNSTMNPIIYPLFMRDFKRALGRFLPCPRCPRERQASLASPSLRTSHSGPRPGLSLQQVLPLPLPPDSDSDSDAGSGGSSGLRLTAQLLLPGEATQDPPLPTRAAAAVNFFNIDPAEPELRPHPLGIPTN

5HT2B = 5HT2B (Homo sapiens, UniProt P41595)
D5 = D5 (Homo sapiens, UniProt P21918)
D5, sequence (P21918 whole entry): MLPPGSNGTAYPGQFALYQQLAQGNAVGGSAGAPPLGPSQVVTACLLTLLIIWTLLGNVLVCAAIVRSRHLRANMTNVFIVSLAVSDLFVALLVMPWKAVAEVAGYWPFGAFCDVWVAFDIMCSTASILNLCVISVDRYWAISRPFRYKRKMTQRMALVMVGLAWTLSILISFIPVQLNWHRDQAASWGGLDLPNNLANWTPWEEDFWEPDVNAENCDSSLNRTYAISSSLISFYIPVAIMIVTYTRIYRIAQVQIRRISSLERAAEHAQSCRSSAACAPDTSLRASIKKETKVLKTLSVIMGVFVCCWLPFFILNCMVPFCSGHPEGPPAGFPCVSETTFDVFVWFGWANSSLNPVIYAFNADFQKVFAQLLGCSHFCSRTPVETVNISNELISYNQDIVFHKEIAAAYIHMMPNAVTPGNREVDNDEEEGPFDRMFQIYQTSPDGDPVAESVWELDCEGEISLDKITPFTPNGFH

NOP = NOP (Homo sapiens, UniProt P41146)
5HT1D = 5HT1D (Homo sapiens, UniProt P28221)
5HT1D, sequence (P28221 whole entry): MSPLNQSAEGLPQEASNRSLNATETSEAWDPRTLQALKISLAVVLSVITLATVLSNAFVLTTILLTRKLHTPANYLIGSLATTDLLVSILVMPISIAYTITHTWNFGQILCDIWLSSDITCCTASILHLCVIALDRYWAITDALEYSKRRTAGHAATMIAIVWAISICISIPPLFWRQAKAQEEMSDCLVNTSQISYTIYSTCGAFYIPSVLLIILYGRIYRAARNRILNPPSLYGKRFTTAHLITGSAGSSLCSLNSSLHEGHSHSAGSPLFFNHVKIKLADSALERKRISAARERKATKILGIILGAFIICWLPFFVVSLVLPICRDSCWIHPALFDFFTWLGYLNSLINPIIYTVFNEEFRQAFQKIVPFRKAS

5HT1E = 5HT1E (Homo sapiens, UniProt P28566)
5HT1E, sequence (P28566 whole entry): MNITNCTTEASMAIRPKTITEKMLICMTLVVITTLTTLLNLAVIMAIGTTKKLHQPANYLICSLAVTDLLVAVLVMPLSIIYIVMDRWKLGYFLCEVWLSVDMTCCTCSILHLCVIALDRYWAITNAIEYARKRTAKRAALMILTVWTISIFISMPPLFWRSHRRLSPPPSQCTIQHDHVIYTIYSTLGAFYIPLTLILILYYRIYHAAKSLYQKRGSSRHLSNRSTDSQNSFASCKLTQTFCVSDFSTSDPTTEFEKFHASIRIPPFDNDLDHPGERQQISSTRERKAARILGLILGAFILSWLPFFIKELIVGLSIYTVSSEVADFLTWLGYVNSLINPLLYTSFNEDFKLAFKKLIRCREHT

D4 = target: T2, D4 (Homo sapiens, UniProt P21917)
T2 sequence (P21917 1-419): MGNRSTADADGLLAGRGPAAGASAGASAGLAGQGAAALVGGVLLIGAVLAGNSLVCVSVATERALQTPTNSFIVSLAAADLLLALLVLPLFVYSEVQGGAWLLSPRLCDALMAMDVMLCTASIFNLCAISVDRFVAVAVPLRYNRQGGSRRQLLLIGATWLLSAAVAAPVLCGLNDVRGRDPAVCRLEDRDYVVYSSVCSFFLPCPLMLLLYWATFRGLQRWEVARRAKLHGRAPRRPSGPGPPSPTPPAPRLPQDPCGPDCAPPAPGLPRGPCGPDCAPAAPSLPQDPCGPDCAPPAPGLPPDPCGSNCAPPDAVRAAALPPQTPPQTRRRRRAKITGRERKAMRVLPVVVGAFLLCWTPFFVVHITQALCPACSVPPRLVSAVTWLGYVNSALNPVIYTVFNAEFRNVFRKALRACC

5HT5A = 5HT5A (Homo sapiens, UniProt P47898)
5HT5A, sequence (P47898 whole entry): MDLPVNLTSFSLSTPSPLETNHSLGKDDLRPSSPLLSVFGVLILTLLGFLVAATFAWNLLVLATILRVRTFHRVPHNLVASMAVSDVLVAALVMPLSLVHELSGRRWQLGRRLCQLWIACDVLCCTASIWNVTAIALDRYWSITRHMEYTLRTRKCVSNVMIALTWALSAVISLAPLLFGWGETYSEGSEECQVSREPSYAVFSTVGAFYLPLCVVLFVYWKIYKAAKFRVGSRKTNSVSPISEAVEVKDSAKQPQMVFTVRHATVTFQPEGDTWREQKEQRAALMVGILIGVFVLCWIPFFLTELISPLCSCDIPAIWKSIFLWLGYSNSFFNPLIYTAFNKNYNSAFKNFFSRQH

5HT7A = 5HT7A (Homo sapiens, UniProt P34969)
5HT7A, sequence (P34969 whole entry): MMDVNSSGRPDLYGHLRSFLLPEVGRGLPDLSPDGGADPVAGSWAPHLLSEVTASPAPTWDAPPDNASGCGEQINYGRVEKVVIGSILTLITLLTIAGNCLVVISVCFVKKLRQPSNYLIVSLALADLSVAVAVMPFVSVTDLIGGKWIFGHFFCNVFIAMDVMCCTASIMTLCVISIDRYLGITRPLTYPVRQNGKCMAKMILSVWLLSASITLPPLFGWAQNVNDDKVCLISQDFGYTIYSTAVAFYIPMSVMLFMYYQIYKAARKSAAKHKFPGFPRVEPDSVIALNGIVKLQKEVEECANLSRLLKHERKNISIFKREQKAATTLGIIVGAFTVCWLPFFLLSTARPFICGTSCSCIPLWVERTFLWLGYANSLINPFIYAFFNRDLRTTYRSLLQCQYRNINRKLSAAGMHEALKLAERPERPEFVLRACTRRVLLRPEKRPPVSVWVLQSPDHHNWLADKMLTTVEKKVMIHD

MOR = MOR (Homo sapiens, UniProt P35372)
MOR, sequence (P35372 whole entry): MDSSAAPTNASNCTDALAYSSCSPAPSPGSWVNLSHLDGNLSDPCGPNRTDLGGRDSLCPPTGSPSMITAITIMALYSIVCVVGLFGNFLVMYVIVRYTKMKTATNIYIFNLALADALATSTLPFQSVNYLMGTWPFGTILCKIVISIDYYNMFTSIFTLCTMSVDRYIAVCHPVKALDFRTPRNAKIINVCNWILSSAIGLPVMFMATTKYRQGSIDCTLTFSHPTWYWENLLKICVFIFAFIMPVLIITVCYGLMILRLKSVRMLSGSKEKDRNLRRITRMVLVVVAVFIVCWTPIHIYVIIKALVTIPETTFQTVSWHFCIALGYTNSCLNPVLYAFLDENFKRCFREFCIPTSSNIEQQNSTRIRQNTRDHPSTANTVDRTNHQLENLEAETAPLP

DOR = DOR (Homo sapiens, UniProt P41143)
D3 = D3 (Homo sapiens, UniProt P35462)
D3, sequence (P35462 whole entry): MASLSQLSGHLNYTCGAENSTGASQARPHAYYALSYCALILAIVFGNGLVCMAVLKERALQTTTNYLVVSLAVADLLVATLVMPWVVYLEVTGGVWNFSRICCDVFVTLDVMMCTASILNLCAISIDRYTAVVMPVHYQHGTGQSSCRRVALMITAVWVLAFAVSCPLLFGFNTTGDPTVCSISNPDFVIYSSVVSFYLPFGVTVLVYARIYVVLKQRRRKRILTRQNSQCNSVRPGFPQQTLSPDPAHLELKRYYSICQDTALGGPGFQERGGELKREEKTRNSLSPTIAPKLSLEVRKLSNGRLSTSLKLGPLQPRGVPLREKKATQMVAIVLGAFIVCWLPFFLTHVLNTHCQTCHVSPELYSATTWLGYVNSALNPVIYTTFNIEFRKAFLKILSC

H4 = H4 (Homo sapiens, UniProt Q9H3N8)
5HT2C = target: T3, 5HT2C (Homo sapiens, UniProt P28335)
T3 sequence (P28335 1-458): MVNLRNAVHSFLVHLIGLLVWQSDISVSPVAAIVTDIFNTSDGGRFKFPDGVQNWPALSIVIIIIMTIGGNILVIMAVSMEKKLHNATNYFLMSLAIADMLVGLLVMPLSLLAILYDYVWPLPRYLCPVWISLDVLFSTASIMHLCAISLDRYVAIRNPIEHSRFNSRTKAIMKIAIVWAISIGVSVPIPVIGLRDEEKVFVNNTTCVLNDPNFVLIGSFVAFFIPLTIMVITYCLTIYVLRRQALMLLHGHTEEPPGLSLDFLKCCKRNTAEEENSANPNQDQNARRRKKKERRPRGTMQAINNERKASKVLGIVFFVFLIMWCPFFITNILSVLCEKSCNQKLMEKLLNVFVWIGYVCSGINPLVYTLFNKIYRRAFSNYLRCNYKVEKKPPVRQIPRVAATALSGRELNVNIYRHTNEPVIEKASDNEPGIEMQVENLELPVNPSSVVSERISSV

DAT = DAT (Homo sapiens, UniProt Q01959)
5HT1A = target: T4, 5HT1A (Homo sapiens, UniProt P08908)
T4 sequence (P08908 1-422): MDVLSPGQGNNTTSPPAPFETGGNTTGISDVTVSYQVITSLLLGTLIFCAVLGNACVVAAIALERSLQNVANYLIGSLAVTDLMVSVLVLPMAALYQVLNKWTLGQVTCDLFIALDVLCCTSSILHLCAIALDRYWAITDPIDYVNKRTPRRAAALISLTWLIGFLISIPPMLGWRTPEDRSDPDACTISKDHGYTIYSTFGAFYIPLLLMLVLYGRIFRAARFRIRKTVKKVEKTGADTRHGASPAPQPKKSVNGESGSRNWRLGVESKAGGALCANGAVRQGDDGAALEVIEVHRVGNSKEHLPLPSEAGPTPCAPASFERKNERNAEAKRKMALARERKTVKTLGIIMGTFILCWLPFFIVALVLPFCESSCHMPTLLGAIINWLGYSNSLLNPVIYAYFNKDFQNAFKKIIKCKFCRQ

5HT1B = 5HT1B (Homo sapiens, UniProt P28222)

D2, sequence (P14416 whole entry): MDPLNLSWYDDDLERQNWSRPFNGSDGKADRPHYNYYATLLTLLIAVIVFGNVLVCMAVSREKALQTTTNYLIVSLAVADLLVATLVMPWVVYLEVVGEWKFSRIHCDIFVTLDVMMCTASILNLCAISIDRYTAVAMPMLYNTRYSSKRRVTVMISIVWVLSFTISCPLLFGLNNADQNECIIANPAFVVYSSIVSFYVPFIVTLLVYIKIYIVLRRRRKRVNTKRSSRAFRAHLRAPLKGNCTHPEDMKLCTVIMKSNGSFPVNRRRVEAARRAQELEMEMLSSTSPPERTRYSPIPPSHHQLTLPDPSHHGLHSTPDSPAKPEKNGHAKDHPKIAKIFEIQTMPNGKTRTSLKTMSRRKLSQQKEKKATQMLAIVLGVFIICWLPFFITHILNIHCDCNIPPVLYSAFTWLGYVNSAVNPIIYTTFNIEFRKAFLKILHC
5HT2A, sequence (P28223 whole entry): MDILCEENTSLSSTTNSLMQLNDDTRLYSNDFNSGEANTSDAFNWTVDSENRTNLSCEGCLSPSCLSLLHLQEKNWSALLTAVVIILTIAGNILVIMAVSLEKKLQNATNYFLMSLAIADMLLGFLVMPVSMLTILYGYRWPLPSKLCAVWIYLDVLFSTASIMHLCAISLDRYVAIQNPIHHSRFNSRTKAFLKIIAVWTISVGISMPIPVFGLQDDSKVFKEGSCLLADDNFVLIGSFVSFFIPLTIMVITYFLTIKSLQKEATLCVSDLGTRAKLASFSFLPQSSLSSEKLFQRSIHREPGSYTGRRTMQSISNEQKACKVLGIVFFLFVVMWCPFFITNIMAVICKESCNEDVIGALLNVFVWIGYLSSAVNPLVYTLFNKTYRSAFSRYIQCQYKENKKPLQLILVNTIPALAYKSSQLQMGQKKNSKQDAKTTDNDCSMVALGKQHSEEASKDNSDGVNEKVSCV
SERT, sequence (P31645 whole entry): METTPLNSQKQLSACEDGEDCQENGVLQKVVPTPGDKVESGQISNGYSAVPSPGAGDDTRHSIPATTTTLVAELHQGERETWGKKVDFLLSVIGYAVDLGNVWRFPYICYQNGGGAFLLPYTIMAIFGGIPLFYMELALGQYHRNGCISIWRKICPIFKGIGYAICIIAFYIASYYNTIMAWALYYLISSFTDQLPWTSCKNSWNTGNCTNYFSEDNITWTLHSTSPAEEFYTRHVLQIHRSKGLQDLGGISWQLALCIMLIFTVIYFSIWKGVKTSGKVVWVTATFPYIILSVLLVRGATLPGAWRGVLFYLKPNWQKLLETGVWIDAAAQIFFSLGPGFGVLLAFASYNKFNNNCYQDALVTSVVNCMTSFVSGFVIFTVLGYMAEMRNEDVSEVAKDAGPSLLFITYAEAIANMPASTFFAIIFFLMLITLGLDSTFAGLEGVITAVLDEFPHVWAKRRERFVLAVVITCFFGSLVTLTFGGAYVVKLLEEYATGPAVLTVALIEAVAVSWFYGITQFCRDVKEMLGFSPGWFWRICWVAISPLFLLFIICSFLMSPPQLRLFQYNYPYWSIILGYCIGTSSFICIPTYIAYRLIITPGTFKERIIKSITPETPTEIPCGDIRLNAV

| SMILES | Ki (5HT2A) | Ki (SERT) | Ki (D2) | Ki (D1) | Ki (5HT3) | Ki (H1) | Ki (5HT6) | Ki (5HT2B) | Ki (D5) | Ki (NOP) | Ki (5HT1D) | Ki (5HT1E) | Ki (D4) | Ki (5HT5A) | Ki (5HT7A) | Ki (D3) | Ki (H4) | Ki (5HT2C) | Ki (DAT) | Ki (5HT1A) | also measured |
| --- | --- | --- | --- | --- | --- | --- | --- | --- | --- | --- | --- | --- | --- | --- | --- | --- | --- | --- | --- | --- | --- |
| Cc1cc(-c2ccc(CNC3Cc4ccccc4C3)cc2)cc(-c2nc[nH]n2)c1 [6A] | 1 µM | 130 nM | > 10 µM | 716 nM | > 10 µM | 1.45 µM | > 10 µM | 826 nM | > 10 µM | 0.167 µM | 1320 nM | > 10 µM | 1770 nM | 3.94 µM | 747 nM | > 10000 nM | > 10 µM | 0.47 µM | 287 nM | > 10 µM | Ki (MOR): 4.2 nM; Ki (DOR): 98 nM |
| Cc1cc(C(N)=O)cc(-c2ccc(CNC3Cc4ccccc4C3)c(F)c2)c1 [2A] | > 10 µM | 174 nM | > 10 µM | 1270 nM | > 10 µM | > 10 µM | > 10 µM | > 10000 nM | > 10 µM | > 10 µM | 1660 nM | > 10 µM | 748 nM | > 10 µM | 891 nM | 748 nM | > 10 µM | > 10 µM | – | > 10 µM | Ki (MOR): 9.2 nM; Ki (DOR): 350 nM |
| Cc1cc(C(N)=O)cc(-c2cc(F)c(CNC3Cc4ccccc4C3)c(F)c2)c1 [1A] | > 10 µM | 523 nM | 6.53 µM | 998 nM | > 10 µM | > 10 µM | > 10 µM | > 10000 nM | > 10 µM | > 10 µM | – | > 10 µM | 594 nM | > 10 µM | > 10000 nM | 466 nM | > 10 µM | > 10 µM | 533 nM | > 10 µM | Ki (MOR): 8.3 nM |
| Cc1cc(-c2ccc(CNC3Cc4ccccc4C3)c(F)c2)cc(-c2ncn[nH]2)c1 [5A] | 1.02 µM | 116 nM | > 10 µM | 1270 nM | > 10 µM | 6.18 µM | > 10 µM | 948 nM | > 10 µM | 0.56 µM | 1420 nM | > 10 µM | 5500 nM | 8.04 µM | 707 nM | 181 nM | > 10 µM | > 10 µM | 303 nM | > 10 µM | Ki (5HT1B): 3.48 µM |
| Cc1cc(C(N)=O)cc(-c2ccc(CNC3Cc4ccccc4C3)cc2)c1 [3A] | > 10 µM | 310 nM | > 10 µM | 1320 nM | > 10 µM | > 10 µM | > 10 µM | > 10000 nM | > 10 µM | > 10 µM | > 10000 nM | – | 27.2 nM | > 10 µM | 977 nM | > 10000 nM | > 10 µM | 2.27 µM | 850 nM | > 10 µM | Ki (MOR): 7.8 nM |
| Cc1cc(-c2cc(F)c(CNC3Cc4ccccc4C3)c(F)c2)cc(-c2ncn[nH]2)c1 [4A] | > 10 µM | 334 nM | > 10 µM | 1870 nM | > 10 µM | > 10 µM | > 10 µM | 484 nM | > 10 µM | > 10 µM | – | – | 1770 nM | > 10 µM | > 10000 nM | > 10000 nM | > 10 µM | > 10 µM | 497 nM | > 10 µM | – |

From doi:10.1101/2024.10.12.618019v1 (biorxiv, 2024)
